Assay results: patent publication US20230241178A1, “LONG ACTING GLP-1/GIP DUAL AGONISTS” (SUN PHARMACEUTICAL INDUSTRIES LIMITED, priority 2020, published 2023)
Marks after values point to notes of the source that are not given here. Numbered stars: 1 amine (or outer) side, 2 acyl side, 3 side chain; on linkers, the order of the positions; unused ones are H or OH. Square brackets hold non-standard residues; d marks the D form. Primed or numbered codes have the meaning given here. Ends that are not written are not given here. dSer(OMe) = COC[C@@H](N[*:1])C(=O)[*:2]; Moiety B″ = not defined here; Aib = CC(C)(N)C(=O)O

Legend:
[1] = tested on: type 2 diabetic mouse (db/db) model; assay: Reduction in blood glucose and effect on body weight and food intake, single dose, db/db mice (Tables 4, 5); assay type: in vivo; settings: for Delta Blood Glucose (mM), Mean: @ 3 nM s.c.
Protocol: The effect of Compounds of present invention on blood glucose was studied on mice. This study was performed in a type 2 diabetic mouse (db/db) model. […] Baseline blood glucose was measured from all the animals. All animals were administered with its respective test item subcutaneously. […] Delta blood glucose (mM) was calculated. Similarly body weight changes and cumulative food consumption was measured at 96 hr post treatment.

[2] = tested on: type 2 diabetic mouse (db/db) model; assay: Effect on blood glucose, food intake and body weight, single s.c. dose 10 nM/kg, db/db mice (Tables 8, 9); assay type: in vivo; settings: 10 nM/kg/s.c/single dose
Protocol: This study was performed in a type 2 diabetic mouse (db/db) model. […] Baseline blood glucose was measured from all the animals. All the animals were administered with test items subcutaneously. Blood glucose was measured at 4 hr, 12 hr, 24 hr, 48 hr, 72 hr and 96 hr post treatment. Delta blood glucose (mM) was calculated. Body weight changes and cumulative food consumption was measured at 96 hr post treatment. Similarly the effect of Compounds 11-15 on blood glucose, food intake and body weight was studied in a separate study except for Compound 13. The results are shown in Table 8 (effect on blood glucose) and Table 9 (effect on body weight and food consumption).

[3] = tested on: type 2 diabetic mouse (db/db) model; assay: Reduction of HbA1c in db/db type 2 diabetic mice after chronic treatment (HbA1c, insulin, triglycerides, food consumption, body weight); assay type: in vivo; settings: for Cumulative Food Consumption Day 0-28 / Insulin / Triglycerides / Δ% HbA1c vs. DC / Body Weight (%) Day 28 vs. Baseline: db/db mice
Protocol: This study was performed in a type 2 diabetic mouse (db/db) model. […] All the treatments were injected subcutaneously every third day for 10 doses (q3d*10). % HbA1c, Insulin, Triglycerides levels were measured on Day 0, day 14 and day 28. Cumulative food intake from day 0-28 and % Change in body weight compared to day 0 was calculated on day 28.

[4] = tested on: type 2 diabetic mouse (db/db) model; assay: Effect of Compound 2 and 7 on blood glucose, body weight and food consumption in mice, up to 72 hr (Tables 6, 7); assay type: in vivo; settings: 90 nM/kg; mice, n = 8
Protocol: Similarly body weight changes and cumulative food consumption was measured at 72 hr post treatment.

GIP-receptor (GIPR) = molecular target: T1, GIP-receptor (GIPR) (UniProt P48546 22-466, limits assumed); assay: cell-based or functional assay
T1 sequence (looked up): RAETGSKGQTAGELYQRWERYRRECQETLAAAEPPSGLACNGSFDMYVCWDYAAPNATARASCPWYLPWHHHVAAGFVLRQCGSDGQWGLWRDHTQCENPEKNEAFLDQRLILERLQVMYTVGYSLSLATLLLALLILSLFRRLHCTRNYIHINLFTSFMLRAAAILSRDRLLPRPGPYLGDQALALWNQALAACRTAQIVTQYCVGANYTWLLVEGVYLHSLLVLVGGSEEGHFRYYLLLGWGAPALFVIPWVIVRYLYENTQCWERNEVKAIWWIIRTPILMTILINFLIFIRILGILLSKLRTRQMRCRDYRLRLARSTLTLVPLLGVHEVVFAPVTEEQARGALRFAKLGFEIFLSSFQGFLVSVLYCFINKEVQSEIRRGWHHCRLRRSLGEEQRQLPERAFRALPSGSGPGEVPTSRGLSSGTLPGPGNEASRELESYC

[5] = molecular target: glucagon-like peptide-1 receptor (GLP-1R) (UniProt P43220 24-463, limits assumed); assay: cell-based or functional assay
[6] = 59 nM/kg s.c., separate study n = 5

In the case of “Compound 3: Seq ID: 06 polypeptide, Lys acylated with Moiety B (Y[dSer(OMe)]EGTFTSDYSI[Aib]LDKIAQK(Moiety B″)AFVQWLIAGGPSSGAPPPS-NH2; reading uncertain)”, the “Cumulative Food Intake (g) 0-96 hr, Mean” value ([1]; 3 nM/kg s.c., n = 6 study) is reported as 21.9 g, the “Body Weight Change (%) 96 hr., Mean” value ([1]; 3 nM/kg s.c., n = 6 study) is reported as −2.5*** % and the “Delta Blood Glucose (mM), Mean” value ([1]; 4 hr post treatment, n = 6 study) is reported as -9.2 mM. For the same molecule, the “Delta Blood Glucose (mM), Mean” value ([1]; 12 hr post treatment, n = 6 study) was -2.9 mM, the “Delta Blood Glucose (mM), Mean” value ([1]; 24 hr post treatment, n = 6 study) was 1.6 mM and the “Delta Blood Glucose (mM), Mean” value ([1]; 48 hr post treatment, n = 6 study) was 0.7 mM. The “Delta Blood Glucose (mM), Mean” value ([1]; 72 hr post treatment, n = 6 study) was 2 mM and the “Delta Blood Glucose (mM), Mean” value ([1]; 96 hr post treatment, n = 6 study) was 2.1 mM.

With “Compound 11: Seq ID: 11 polypeptide, Lys acylated with Moiety B (YXEGTFTSDYSIXLDKIAQKAFVQWLIAGGPSSGAPPPSR; (2)..(2) Xaa = Aib (2-Aminoisobutyric acid); (13)..(13) Xaa = Aib (2-Aminoisobutyric acid); (20)..(20) Side chain amino (Epsilon amino) group of Lys is substituted)” the “Delta Blood Glucose (mM), Mean” value ([2]; 0 hr (baseline)) was 0.0 mM, the “Body Wt. Change (%) 96 hr. vs. Baseline, Mean” value [2] was −4.5*** % and the “Cumulative food Intake (g) 96 hr. vs. Baseline, Mean” value [2] was 14.1*** g. The “blood glucose reduction post treatment (in words)” value [2] was “statistically significant blood glucose reduction”, the “Delta Blood Glucose (mM), Mean” value ([2]; 4 hr post treatment) was −10.5*** mM and the “Delta Blood Glucose (mM), Mean” value ([2]; 12 hr post treatment) was −11.2*** mM. For the same molecule, the “Delta Blood Glucose (mM), Mean” value ([2]; 24 hr post treatment) was −14.6*** mM, the “Delta Blood Glucose (mM), Mean” value ([2]; 48 hr post treatment) was −6.4*** mM and the “Delta Blood Glucose (mM), Mean” value ([2]; 72 hr post treatment) was −2.9*** mM. For the same molecule, the “Delta Blood Glucose (mM), Mean” value ([2]; 96 hr post treatment) was 1.1 mM.

With “Compound 12: Seq ID: 11 polypeptide, Lys acylated with Moiety C (YXEGTFTSDYSIXLDKIAQKAFVQWLIAGGPSSGAPPPSR; (2)..(2) Xaa = Aib (2-Aminoisobutyric acid); (13)..(13) Xaa = Aib (2-Aminoisobutyric acid); (20)..(20) Side chain amino (Epsilon amino) group of Lys is substituted)” the “Delta Blood Glucose (mM), Mean” value ([2]; 0 hr (baseline)) was 0.0 mM, the “Body Wt. Change (%) 96 hr. vs. Baseline, Mean” value [2] was −3.1** % and the “Cumulative food Intake (g) 96 hr. vs. Baseline, Mean” value [2] was 15.2*** g. For the same molecule, the “Delta Blood Glucose (mM), Mean” value ([2]; 4 hr post treatment) was −14.2*** mM, the “Delta Blood Glucose (mM), Mean” value ([2]; 12 hr post treatment) was −13.0*** mM and the “Delta Blood Glucose (mM), Mean” value ([2]; 24 hr post treatment) was −8.0*** mM. The “Delta Blood Glucose (mM), Mean” value ([2]; 48 hr post treatment) was −5.5* mM, the “Delta Blood Glucose (mM), Mean” value ([2]; 72 hr post treatment) was -2.9 mM and the “Delta Blood Glucose (mM), Mean” value ([2]; 96 hr post treatment) was 1.7 mM.

For “Compound 16: Seq ID: 11 polypeptide, Lys acylated with Moiety D (YXEGTFTSDYSIXLDKIAQKAFVQWLIAGGPSSGAPPPSR; (2)..(2) Xaa = Aib (2-Aminoisobutyric acid); (13)..(13) Xaa = Aib (2-Aminoisobutyric acid); (20)..(20) Side chain amino (Epsilon amino) group of Lys is substituted)”, the “Delta Blood Glucose (mM), Mean” value ([2]; 0 hr (baseline)) was 0.0 mM, the “Delta Blood Glucose (mM), Mean” value ([2]; 4 hr post treatment) was −14.4*** mM and the “Delta Blood Glucose (mM), Mean” value ([2]; 12 hr post treatment) was −12.1*** mM. The “Delta Blood Glucose (mM), Mean” value ([2]; 24 hr post treatment) was −10.8*** mM, the “Delta Blood Glucose (mM), Mean” value ([2]; 48 hr post treatment) was −4.9** mM and the “Delta Blood Glucose (mM), Mean” value ([2]; 72 hr post treatment) was 0.8 mM. The “Delta Blood Glucose (mM), Mean” value ([2]; 96 hr post treatment) was 0.7* mM.

Tirzepatide [reference compound] was tested, and the “Cumulative Food Intake (g) 0-96 hr, Mean” value ([1]; 10 nM/kg s.c., n = 6 study) was 13.3*** g, the “Body Weight Change (%) 96 hr., Mean” value ([1]; 10 nM/kg s.c., n = 6 study) was −3.4*** % and the “Cumulative Food Intake (g) 0-96 hr, Mean” value [1, 6] was 15.9 g. For the same molecule, the “Body Weight Change (%) 96 hr., Mean” value [1, 6] was −2.8** %, the “improvement in HbA1c reduction from day 14 to day 28 (in words)” value ([3]; 180 nM/kg dose) was “minimal improvement in HbA1c reduction” and the “Cumulative Food Consumption Day 0-28” value ([3]; 90 nM/kg s.c. q3d*10) was 119.1. The “Cumulative Food Consumption Day 0-28” value ([3]; 180 nM/kg s.c. q3d*10) was 90.1, the Insulin ([3]; Day 14, 90 nM/kg s.c. q3d*10) was 65.23 ng/mL and the Triglycerides ([3]; Day 14, 90 nM/kg s.c. q3d*10) was 168.7 mg/dL. For the same molecule, the “Δ% HbA1c vs. DC” value ([3]; Day 14, 90 nM/kg s.c. q3d*10) was −2.63*** %, the Insulin ([3]; Day 14, 180 nM/kg s.c. q3d*10) was 71.77 ng/mL and the Triglycerides ([3]; Day 14, 180 nM/kg s.c. q3d*10) was 143.4 mg/dL. For the same molecule, the “Δ% HbA1c vs. DC” value ([3]; Day 14, 180 nM/kg s.c. q3d*10) was −3.50*** %, the “Body Weight (%) Day 28 vs. Baseline” value ([3]; Day 28, 90 nM/kg s.c. q3d*10) was −0.9% and the Insulin ([3]; Day 28, 90 nM/kg s.c. q3d*10) was 52.32 ng/mL. For the same molecule, the Triglycerides ([3]; Day 28, 90 nM/kg s.c. q3d*10) was 167.4 mg/dL, the “Δ% HbA1c vs. DC” value ([3]; Day 28, 90 nM/kg s.c. q3d*10) was −3.43*** % and the “Body Weight (%) Day 28 vs. Baseline” value ([3]; Day 28, 180 nM/kg s.c. q3d*10) was −6.8%. The Insulin ([3]; Day 28, 180 nM/kg s.c. q3d*10) was 60.19 ng/mL, the Triglycerides ([3]; Day 28, 180 nM/kg s.c. q3d*10) was 141.3 mg/dL and the “Δ% HbA1c vs. DC” value ([3]; Day 28, 180 nM/kg s.c. q3d*10) was −3.74*** %. The “% Body wt. change 72 hr. vs. 0 hr., Mean” value [4] was −6.7*** % and the “Cumulative Food Consumption (0-72 hr) (g), Mean” value [4] was 8.1** g.

B1: Compound 2 (peptide)
peptide: YXEGTFTSDYSIXLDKIAQKAFVQWLIAGGPSSGAPPPS
modifications: Aib at positions 2 and 13; side chain epsilon-amino group of Lys 20 acylated with Moiety B (U-W-Y-Z with W = -C(O)-C(CH3)2-NH-, i.e. 2-[2-(2-aminoethoxy)ethoxy]acetyl-Aib-gammaGlu-C20 diacid); C-terminal primary amide (Ser-NH2)
With B1 the “Tirzepatide/Compound 2 ratio of half-maximal effective concentrations, cellular cAMP assay” value (GIP-receptor (GIPR)) was 0.81 ratio and the “Tirzepatide/Compound 2 ratio of half-maximal effective concentrations, cellular cAMP assay” value [5] was 1.68 ratio.
